# Results as given in patent publication US10611731B2, “5-methyl-6-phenyl-4,5-dihydro-2H-pyridazin-3-one derivative” (OTSUKA PHARMACEUTICAL CO., LTD., priority 2016, dated 2020).
# System: human childhood brain tumor cell lines (PFSK-1)
# Test: Growth inhibitory activity against PFSK-1 cells (WST-8, Cell Counting Kit-8)
# Type: cell-based
# Settings: 3 days incubation with test compound, WST-8 OD 450/630 nm, read-out: IC50 (concentration inhibiting 50% of the cell growth)
# Method: The growth inhibitory activity against human childhood brain tumor cell lines (PFSK-1) was measured with WST-8 reagent [2-(2-methoxy-4-nitrophenyl)-3-(4-nitrophenyl)-5-(2,4-disulfophenyl)-2H-tetrazolium monosodium salt, Cell Counting Kit-8™], according to the method described in Tominaga, H. et al., Anal. Commun., 1999, 36, 47-50. Briefly, PFSK-1 was seeded in 96-well microplate at 100 μL/well with Roswell Park Memorial Institute (RPMI) 1640 medium containing 10% fetal bovine serum (FBS), and the cells were incubated in the presence of 5% carbon dioxide (CO2) at 37° C. for 24 hours. 50 μL of each test compound diluted with the medium was added to each well, and then the cells were incubated further for 3 days. After the incubation, 15 μL of Cell Counting Kit-8™ was added to each well, and the cells were incubated for one and half hours. Then, optical density (OD) values at measurement wavelength 450 nm and reference wavelength 630 nm were measured and the difference thereof was calculated. From the calculated difference, the OD value difference (at measurement wavelength 450 nm and reference wavelength 630 nm) of the control well which includes no cell was subtracted to afford cell-growth activity in each well.
# The cell growth inhibitory activity of each test compound was calculated by comparing the cell-growth activity with each test compound to the cell-growth activity without any test compound (control), and each IC50 (nM) which is the concentration inhibiting 50% of the cell growth was calculated.
row,SMILES,IC50 [nM]
1,"CC1CC(=O)NN=C1c1ccc(OC[C@H]2C[C@@H]2CO)c(Cl)c1F (relative stereo) [Example 156, 6-(3-Chloro-2-fluoro-4-{[(1S*,2S*)-2-(hydroxymethyl)cyclopropyl]methoxy}phenyl)-5-methyl-4,5-dihydro-2H-pyridazin-3-one]",2.9

# Same assay, conditions: Homo sapiens, 72 h, 3 days incubation with test compound, WST-8 OD 450/630 nm, read-out: IC50 (concentration inhibiting 50% of the cell growth)
row,SMILES,IC50 [nM]
1,"CC1CC(=O)NN=C1c1ccc(OC[C@H]2C[C@H]2CO)c(Cl)c1F (relative stereo) [Example 154, 6-(3-Chloro-2-fluoro-4-{[(1S*,2R*)-2-(hydroxymethyl)cyclopropyl]methoxy}phenyl)-5-methyl-4,5-dihydro-2H-pyridazin-3-one]",2.9
2,"Cc1cc(C2=NNC(=O)CC2C)cc(Cl)c1OC[C@H]1C[C@H]1CO (relative stereo) [Example 155, 6-(3-Chloro-4-{[(1 S*,2R*)-2-(hydroxymethyl)cyclopropyl]methoxy}-5-methylphenyl)-5-methyl-4,5-dihydro-2H-pyridazin-3-one]",2.2
3,"CC1CC(=O)NN=C1c1cc(Cl)c(OCC(C)(C)O)c(Br)c1 (centres unmarked) [Example 1, 6-[3-bromo-5-chloro-4-(2-hydroxy-2-methylpropoxy)phenyl]-5-methyl-4,5-dihydro-2H-pyridazin-3-one]",1.1
4,"CC1CC(=O)NN=C1c1cc(Cl)c(OCC(C)(C)O)c(Cl)c1 (centres unmarked) [Example 2, 6-[3,5-dichloro-4-(2-hydroxy-2-methylpropoxy)phenyl]-5-methyl-4,5-dihydro-2H-pyridazin-3-one]",1
5,"CC1CC(=O)NN=C1c1cc(F)c(OCC(C)(C)CO)c(F)c1 (centres unmarked) [Example 6, 6-[3,5-Difluoro-4-(3-hydroxy-2,2-dimethylpropoxy)phenyl]-5-methyl-4,5-dihydro-2H-pyridazin-3-one]",3.8
6,"CC1CC(=O)NN=C1c1cc(F)c(OCC(C)(C)CO)c(Cl)c1 (centres unmarked) [Example 7, 6-[3-chloro-5-fluoro-4-(3-hydroxy-2,2-dimethylpropoxy)phenyl]-5-methyl-4,5-dihydro-2H-pyridazin-3-one]",1
7,"Cc1c(OCC(C)(C)CO)ccc(C2=NNC(=O)CC2C)c1F (centres unmarked) [Example 8, 6-[2-Fluoro-4-(3-hydroxy-2,2-dimethylpropoxy)-3-methylphenyl]-5-methyl-4,5-dihydro-2H-pyridazin-3-one]",7.9
8,"CC1CC(=O)NN=C1c1ccc(OCC(C)(C)CO)c(F)c1F (centres unmarked) [Example 9, 6-[2,3-Difluoro-4-(3-hydroxy-2,2-dimethylpropoxy)phenyl]-5-methyl-4,5-dihydro-2H-pyridazin-3-one]",4.2
9,"CC1CC(=O)NN=C1c1ccc(OCCCO)c(F)c1F (centres unmarked) [Example 10, 6-[2,3-Difluoro-4-(3-hydroxypropoxy)phenyl]-5-methyl-4,5-dihydro-2H-pyridazin-3-one]",3.7
10,"CC1CC(=O)NN=C1c1cc(F)c(OCCCO)c(Br)c1 (centres unmarked) [Example 11, 6-[3-Bromo-5-fluoro-4-(3-hydroxypropoxy)phenyl]-5-methyl-4,5-dihydro-2H-pyridazin-3-one]",3
11,"CC1CC(=O)NN=C1c1ccc(OCCCO)c(Br)c1F (centres unmarked) [Example 12, 6-[3-bromo-2-fluoro-4-(3-hydroxypropoxy)phenyl]-5-methyl-4,5-dihydro-2H-pyridazin-3-one]",1.9
12,"Cc1cc(C2=NNC(=O)CC2C)cc(C)c1OCCCO (centres unmarked) [Example 14, 6-[4-(3-Hydroxypropoxy)-3,5-dimethylphenyl]-5-methyl-4,5-dihydro-2H-pyridazin-3-one]",8
13,"CC1CC(=O)NN=C1c1cc(F)c(OCCCO)c(Cl)c1 (centres unmarked) [Example 15, 6-[3-Chloro-5-fluoro-4-(3-hydroxypropoxy)phenyl]-5-methyl-4,5-dihydro-2H-pyridazin-3-one]",4
14,"CC1CC(=O)NN=C1c1cc(Cl)c(OCCCO)c(Cl)c1 (centres unmarked) [Example 16, 6-[3,5-Dichloro-4-(3-hydroxypropoxy)phenyl]-5-methyl-4,5-dihydro-2H-pyridazin-3-one]",3.6
15,"CC1CC(=O)NN=C1c1ccc(OCCCO)c(Cl)c1F (centres unmarked) [Example 19, 6-[3-chloro-2-fluoro-4-(3-hydroxypropoxy)phenyl]-5-methyl-4,5-dihydro-2H-pyridazin-3-one]",1.3
16,"Cc1cc(C2=NNC(=O)CC2C)cc(F)c1OCCCO (centres unmarked) [Example 20, 6-[3-Fluoro-4-(3-hydroxypropoxy)-5-methylphenyl]-5-methyl-4,5-dihydro-2H-pyridazin-3-one]",4.2
17,"Cc1c(OCCCO)ccc(C2=NNC(=O)CC2C)c1F (centres unmarked) [Example 21, 6-[2-Fluoro-4-(3-hydroxypropoxy)-3-methylphenyl]-5-methyl-4,5-dihydro-2H-pyridazin-3-one]",4

row,SMILES,IC50 [nM]
1,"Cc1cc(C2=NNC(=O)CC2C)c(F)c(Cl)c1OCCCO (centres unmarked) [Example 22, 6-[3-chloro-2-fluoro-4-(3-hydroxypropoxy)-5-methylphenyl]-5-methyl-4,5-dihydro-2H-pyridazin-3-one]",1.9
2,"CCc1c(OCCCO)ccc(C2=NNC(=O)CC2C)c1F (centres unmarked) [Example 23, 6-[3-Ethyl-2-fluoro-4-(3-hydroxypropoxy)phenyl]-5-methyl-4,5-dihydro-2H-pyridazin-3-one]",8
3,"CC1CC(=O)NN=C1c1ccc(OCC(C)(C)O)c(Br)c1F (centres unmarked) [Example 24, 6-[3-bromo-2-fluoro-4-(2-hydroxy-2-methylpropoxy)phenyl]-5-methyl-4,5-dihydro-2H-pyridazin-3-one]",1.7
4,"CC1CC(=O)NN=C1c1cc(F)c(OCC(C)(C)O)c(Cl)c1 (centres unmarked) [Example 25, 6-[3-Chloro-5-fluoro-4-(2-hydroxy-2-methylpropoxy)phenyl]-5-methyl-4,5-dihydro-2H-pyridazin-3-one]",2.6
5,"CC1CC(=O)NN=C1c1cc(F)c(OCC(C)(C)O)c(Br)c1 (centres unmarked) [Example 26, 6-[3-bromo-5-fluoro-4-(2-hydroxy-2-methylpropoxy)phenyl]-5-methyl-4,5-dihydro-2H-pyridazin-3-one]",2
6,"Cc1c(OCC(C)(C)O)ccc(C2=NNC(=O)CC2C)c1O (centres unmarked) [Example 28, 6-[2-Hydroxy-4-(2-hydroxy-2-methylpropoxy)-3-methylphenyl]-5-methyl-4,5-dihydro-2H-pyridazin-3-one]",6.3
7,"Cc1cc(C2=NNC(=O)CC2C)cc(Cl)c1OCC(C)(C)O (centres unmarked) [Example 31, 6-[3-chloro-4-(2-hydroxy-2-methylpropoxy)-5-methylphenyl]-5-methyl-4,5-dihydro-2H-pyridazin-3-one]",1.1
8,"Cc1cc(C2=NNC(=O)CC2C)cc(C)c1OCC(C)(C)O (centres unmarked) [Example 32, 6-[4-(2-Hydroxy-2-methylpropoxy)-3,5-dimethylphenyl]-5-methyl-4,5-dihydro-2H-pyridazin-3-one]",4
9,"Cc1cc(C2=NNC(=O)CC2C)cc(F)c1OCC(C)(C)O (centres unmarked) [Example 33, 6-[3-Fluoro-4-(2-hydroxy-2-methylpropoxy)-5-methylphenyl]-5-methyl-4,5-dihydro-2H-pyridazin-3-one]",5.1
10,"Cc1c(OCC(C)(C)O)ccc(C2=NNC(=O)CC2C)c1F (centres unmarked) [Example 34, 6-[2-Fluoro-4-(2-hydroxy-2-methylpropoxy)-3-methylphenyl]-5-methyl-4,5-dihydro-2H-pyridazin-3-one]",5.2
11,"Cc1c(F)c(C2=NNC(=O)CC2C)cc(Cl)c1OCC(C)(C)O (centres unmarked) [Example 35, 6-[5-Chloro-2-fluoro-4-(2-hydroxy-2-methylpropoxy)-3-methylphenyl]-5-methyl-4,5-dihydro-2H-pyridazin-3-one]",6.3
12,"Cc1cc(C2=NNC(=O)CC2C)c(F)c(Cl)c1OCC(C)(C)O (centres unmarked) [Example 36, 6-[3-chloro-2-fluoro-4-(2-hydroxy-2-methylpropoxy)-5-methylphenyl]-5-methyl-4,5-dihydro-2H-pyridazin-3-one]",1
13,"CC1CC(=O)NN=C1c1cc(F)c(OCC(O)(C(F)(F)F)C(F)(F)F)c(Cl)c1 (centres unmarked) [Example 37, 6-{3-Chloro-5-fluoro-4-[3,3,3-trifluoro-2-hydroxy-2-(trifluoromethyl)propoxy]phenyl}-5-methyl-4,5-dihydro-2H-pyridazin-3-one]",8.8
14,"CC1CC(=O)NN=C1c1cc(F)c(OCC(O)(C(F)(F)F)C(F)(F)F)c(Br)c1 (centres unmarked) [Example 38, 6-{3-Bromo-5-fluoro-4-[3,3,3-trifluoro-2-hydroxy-2-(trifluoromethyl)propoxy]phenyl}-5-methyl-4,5-dihydro-2H-pyridazin-3-one]",5.2
15,"Cc1cc(C2=NNC(=O)CC2C)cc(Cl)c1OC[C@H](C)O (stereo partly drawn) [Example 39, 6-{3-Chloro-4-[(2S)-2-hydroxypropoxy]-5-methylphenyl}-5-methyl-4,5-dihydro-2H-pyridazin-3-one]",2.8
16,"Cc1cc(C2=NNC(=O)CC2C)cc(Cl)c1OC[C@@H](C)O (stereo partly drawn) [Example 40, 6-{3-chloro-4-[(2R)-2-hydroxypropoxy]-5-methylphenyl}-5-methyl-4,5-dihydro-2H-pyridazin-3-one]",1.6
17,"Cc1cc(C2=NNC(=O)CC2C)cc(C)c1OCC1(O)CC1 (centres unmarked) [Example 43, 6-{4-[(1-Hydroxycyclopropyl)methoxy]-3,5-dimethylphenyl}-5-methyl-4,5-dihydro-2H-pyridazin-3-one]",4.3
